Measured values from US9656990B2, “Cathepsin cysteine protease inhibitors” (Merck Sharp & Dohme Corp., priority 2014, dated 2017).

How the values were obtained:
[1] = biological target: T1, human cathepsin F (Homo sapiens, UniProt Q9UBX1); experiment: Cathepsin F Assay; format: biochemical; conditions: IP from dose response curve; Z-Phe-Arg-AMC substrate, pH 5.5; read-out: hCat F (IP (nM))
T1 sequence (Q9UBX1 271-484): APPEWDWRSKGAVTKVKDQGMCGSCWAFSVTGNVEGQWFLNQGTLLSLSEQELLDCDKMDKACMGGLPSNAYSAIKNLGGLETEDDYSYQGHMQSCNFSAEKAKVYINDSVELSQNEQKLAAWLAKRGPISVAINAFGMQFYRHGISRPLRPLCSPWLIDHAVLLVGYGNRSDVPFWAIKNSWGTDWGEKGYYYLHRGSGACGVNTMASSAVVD
Outline: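 Human cathepsin F (10 nM) preincubated 15 min at room temperature with compounds in 50 mM MES pH 5.5, 2.5 mM EDTA, 2.5 mM DTT, 10% DMSO. Z-Phe-Arg-AMC (8 μM) added; AMC release read by fluorescence (Ex 360/Em 460 nm) over 20 min, inhibition fit to dose-response model.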

[2] = biological target: human cathepsin K (UniProt P43236, Y175D/V274L, species not given); experiment: Cathepsin K Assay; format: biochemical; conditions: IP from dose response curve; Z-Leu-Arg-AMC substrate, pH 5.5; read-out: hrbCat K (IP (nM))

| Structure (SMILES) | IC50 [1] | IC50 [2] |
| --- | --- | --- |
| N#CC1(NC(=O)[C@@H]2CC(F)(F)CC[C@H]2c2nn(-c3ccc(F)cc3)c(CO)c2-c2ccc(N3CCS(=O)(=O)CC3)cc2)CC1 [Example 11, (1R,2R)—N-(1-Cyanocyclopropyl)-2-(4-(4-(1,1-dioxidothiomorpholino)phenyl)-1-(4-fluorophenyl)-5-(hydroxymethyl)-1H-pyrazol-3-yl)-5,5-difluorocyclohexanecarboxamide] | 125 nM | 1.41 nM |
| N#CC1(NC(=O)[C@@H]2CCCC[C@H]2c2nn(-c3ccccc3C(F)(F)F)cc2-c2ccc(N3CCS(=O)(=O)CC3)cc2)CC1 [Example 120, (1R,2R)-N-(1-cyanocyclopropyl)-2-(4-(4-(1,1-dioxidothiomorpholino)phen-yl)-1-(2-(trifluoromethyl)phenyl)-1H-pyrazol-3-yl)cyclohexanecarboxamide] | 3120 nM | 6.72 nM |
| N#Cc1ccc(-n2cc(-c3ccc(N4CCS(=O)(=O)CC4)cc3)c([C@@H]3CCCC[C@H]3C(=O)NC3(C#N)CC3)n2)cc1 [Example 100, (1R,2R)-N-(1-cyanocyclopropyl)-2-(1-(4-cyanophenyl)-4-(4-(1,1-dioxidothiomorpholino)phen-yl)-1H-pyrazol-3-yl)cyclohexanecarboxamide] | 212 nM | 0.87 nM |
| Cc1c(-c2ccc(N3CCS(=O)(=O)CC3)cc2)c([C@@H]2CCCC[C@H]2C(=O)NC2(C#N)CC2)nn1-c1ccc(F)cn1 [Example 157, (1R,2R)-N-(1-cyanocyclopropyl)-2-(4-(4-(1,1-dioxidothiomorpholino)phen-yl)-1-(5-fluoropyridin-2-yl)-5-methyl-1H-pyrazol-3-yl)cyclohexanecarboxamide] | 2980 nM | 4.26 nM |
| CC(C#N)NC(=O)[C@@H]1CCC(F)(F)C[C@H]1c1nn(-c2ccc(F)cn2)cc1-c1ccc(N2CCS(=N)(=O)CC2)cc1 (single isomer, unassigned) [Example 23, (1R,2R)-N-((S or R)-1-cyanoethyl)-4,4-difluoro-2-(1-(5-fluoropyridin-2-yl)-4-(4-(1-imino-1-oxidothiomorpholino)phenyl)-1H-pyrazol-3-yl)cyclohexanecarboxamide] | 348 nM | 1.07 nM |
| CC(C)[C@@H](C#N)NC(=O)[C@@H]1CC(F)(F)CC[C@H]1c1nn(-c2ccc(F)cn2)c(CO)c1-c1ccc(N2CCS(=O)(=O)CC2)cc1 [Example 69, (1R,2R)-N-((S)-1-cyano-2-methylpropyl)-2-(4-(4-(1,1-dioxidothiomorpholino)phen-yl)-1-(5-fluoropyridin-2-yl)-5-(hydroxymethyl)-1H-pyrazol-3-yl)-5,5-difluorocyclohexanecarbox-amide] | 225 nM | 2.68 nM |
| N#CC1(NC(=O)[C@@H]2CCCC[C@H]2c2nn(-c3ccc(F)cn3)cc2-c2ccc(N3CCS(=O)(=O)CC3)cc2)CC1 [Example 145, (1R,2R)-N-(1-cyanocyclopropyl)-2-(4-(4-(1,1-dioxidothiomorpholino)phen-yl)-1-(5-fluoropyridin-2-yl)-1H-pyrazol-3-yl)cyclohexanecarboxamide] | 481 nM | 1.24 nM |
| N#CC1(NC(=O)[C@@H]2CC(F)(F)CC[C@H]2c2nn(-c3ccc(F)cn3)c(CF)c2-c2ccc(N3CCS(=O)(=O)CC3)cc2)CC1 [Example 62, (1R,2R)-N-(1-cyanocyclopropyl)-2-(4-(4-(1,1-dioxidothiomorpholino)phen-yl)-5-(fluoromethyl)-1-(5-fluoropyridin-2-yl)-1H-pyrazol-3-yl)-5,5-difluorocyclohexanecarbox-amide] | 151 nM | 1.33 nM |
| N#CC1(NC(=O)[C@@H]2CCCC[C@H]2c2nn(-c3cccc(OC(F)(F)F)c3)cc2-c2ccc(N3CCS(=O)(=O)CC3)cc2)CC1 [Example 122, (1R,2R)-N-(1-cyanocyclopropyl)-2-(4-(4-(1,1-dioxidothiomorpholino)phen-yl)-1-(3-(trifluoromethoxy)phenyl)-1H-pyrazol-3-yl)cyclohexanecarboxamide] | 466 nM | 0.78 nM |
| Cc1cc(C#N)ccc1-n1cc(-c2ccc(N3CCS(=O)(=O)CC3)cc2)c([C@@H]2CCCC[C@H]2C(=O)NC2(C#N)CC2)n1 [Example 103, (1R,2R)-2-(1-(4-cyano-2-methylphenyl)-4-(4-(1,1-dioxidothiomorpholino)phen-yl)-1H-pyrazol-3-yl)-N-(1-cyanocyclopropyl)cyclohex-anecarboxamide] | 622 nM | 2.17 nM |
| CN=S1(=O)CCN(c2ccc(-c3cn(-c4ncccc4F)nc3[C@@H]3CC(F)(F)CC[C@H]3C(=O)N[C@@H](C)C#N)cc2)CC1 [Example 46, (1R,2R)-N-((S)-1-cyanoethyl)-4,4-difluoro-2-(1-(3-fluoropyridin-2-yl)-4-(4-(1-(methylimino)-1-oxidothiomorpholino)phenyl)-1H-pyrazol-3-yl)cyclohexanecarboxamide] | 6620 nM | 5.78 nM |
| N#CC1(NC(=O)[C@@H]2CCCC[C@H]2c2nn(-c3cc(F)cnc3F)cc2-c2ccc(N3CCS(=O)(=O)CC3)cc2)CC1 [Example 169, (1R,2R)-N-(1-cyanocyclopropyl)-2-(1-(2,5-difluoropyridin-3-yl)-4-(4-(1,1-dioxidothiomorpholino)phen-yl)-1H-pyrazol-3-yl)cyclohexanecarboxamide] | 5670 nM | 3.94 nM |
| N#CC1(NC(=O)[C@@H]2CCCC[C@H]2c2nn(-c3cncc(Cl)c3)cc2-c2ccc(N3CCS(=O)(=O)CC3)cc2)CC1 [Example 8, (1R,2R)-2-(1-(5-Chloropyridin-3-yl)-4-(4-(1,1-dioxidothiomorpholino)phenyl)-1H-pyrazol-3-yl)-N-(1-cyanocyclopropyl)cyclohexanecarboxamide] | 215 nM | 0.75 nM |
| N#Cc1cc(F)ccc1-n1cc(-c2ccc(N3CCS(=O)(=O)CC3)cc2)c([C@@H]2CCCC[C@H]2C(=O)NC2(C#N)CC2)n1 [Example 106, (1R,2R)-2-(1-(2-cyano-4-fluorophenyl)-4-(4-(1,1-dioxidothiomorpholino)phen-yl)-1H-pyrazol-3-yl)-N-(1-cyanocyclopropyl)cyclohex-anecarboxamide] | 1920 nM | 2.88 nM |
| N#CC(CC(F)(F)F)NC(=O)[C@@H]1CC(F)(F)CC[C@H]1c1nn2ccccc2c1-c1ccc(N2CCS(=O)(=O)CC2)cc1 (single isomer, unassigned) [Example 75, (1R,2R)-N-((R or S)-1-cyano-3,3,3-trifluoropropyl)-2-(3-(4-(1,1-dioxidothiomorpholino)phen-yl)pyrazolo[1,5-a]pyridin-2-yl)-5,5-difluorocyclohexanecarbox-amide] | 21 nM | 0.99 nM |
| CN=S1(=O)CCN(c2ccc(-c3cn(-c4ccc(F)cn4)nc3[C@@H]3CC[C@H](F)C[C@H]3C(=O)NC3(C#N)CC3)cc2)CC1 [Example 17, (1R,2R,5S)-N-(1-cyanocyclopropyl)-5-fluoro-2-(1-(5-fluoropyridin-2-yl)-4-(4-(1-(methylimino)-1-oxidothiomorpholino)phenyl)-1H-pyrazol-3-yl)cyclohexanecarboxamide] | 1410 nM | 3.22 nM |
| N#CC1(NC(=O)[C@@H]2CCCC[C@H]2c2nn(-c3cnc(O)nc3)cc2-c2ccc(N3CCS(=O)(=O)CC3)cc2)CC1 [Example 170, (1R,2R)-N-(1-cyanocyclopropyl)-2-(4-(4-(1,1-dioxidothiomorpholino)phen-yl)-1-(2-hydroxypyrimidin-5-yl)-1H-pyrazol-3-yl)cyclohexanecarboxamide] | 2530 nM | 1.88 nM |
| N#CC1(NC(=O)[C@@H]2CCCC[C@H]2c2nn(-c3ccc(C(O)(C(F)(F)F)C(F)(F)F)cc3)cc2-c2ccc(N3CCS(=O)(=O)CC3)cc2)CC1 [Example 109, (1R,2R)-N-(1-cyanocyclopropyl)-2-(4-(4-(1,1-dioxidothiomorpholino)phen-yl)-1-(4-(1,1,1,3,3,3-hexafluoro-2-hydroxypropan-2-yl)phenyl)-1H-pyrazol-3-yl)cyclohexanecarboxamide] | 267 nM | 2.67 nM |
| N#CC1(NC(=O)[C@@H]2CCCC[C@H]2c2nn(-c3cccc(F)c3)cc2-c2ccc(N3CCS(=O)(=O)CC3)cc2)CC1 [Example 86, (1R,2R)-N-(1-cyanocyclopropyl)-2-(4-(4-(1,1-dioxidothiomorpholino)phen-yl)-1-(3-fluorophenyl)-1H-pyrazol-3-yl)cyclohexanecarboxamide] | 268 nM | 0.33 nM |
| N#CC1(NC(=O)[C@@H]2CCCC[C@H]2c2nn(-c3ccc(F)cn3)c(CO)c2-c2ccc(N3CCS(=O)(=O)CC3)cc2)CC1 [Example 30, (1R,2R)-N-(1-cyanocyclopropyl)-2-(4-(4-(1,1-dioxidothiomorpholino)phen-yl)-1-(5-fluoropyridin-2-yl)-5-(hydroxymethyl)-1H-pyrazol-3-yl)cyclohexanecarboxamide] | 5870 nM | 11 nM |
| CC(C)[C@@H](C#N)NC(=O)[C@@H]1CC(F)(F)CC[C@H]1c1nn2ccccc2c1-c1ccc(N2CCS(=O)(=O)CC2)cc1 [Example 73, (1R,2R)-N-((S)-1-cyano-2-methylpropyl)-2-(3-(4-(1,1-dioxidothiomorpholino)phen-yl)pyrazolo[1,5-a]pyridin-2-yl)-5,5-difluorocyclohexanecarbox-amide] | 269 nM | 5.19 nM |
